Counter-ions that a name gives are not always drawn.
What follows are compounds tested against IRE1α (Homo sapiens (Human), UniProt O75460, D688N) (assay: IRE1α TR-FRET competition binding assay (IRE1α HTRF)). Conditions: TR-FRET competition binding to kinase domain of IRE1α.
Sequence of IRE1α (O75460 547-977 D688N): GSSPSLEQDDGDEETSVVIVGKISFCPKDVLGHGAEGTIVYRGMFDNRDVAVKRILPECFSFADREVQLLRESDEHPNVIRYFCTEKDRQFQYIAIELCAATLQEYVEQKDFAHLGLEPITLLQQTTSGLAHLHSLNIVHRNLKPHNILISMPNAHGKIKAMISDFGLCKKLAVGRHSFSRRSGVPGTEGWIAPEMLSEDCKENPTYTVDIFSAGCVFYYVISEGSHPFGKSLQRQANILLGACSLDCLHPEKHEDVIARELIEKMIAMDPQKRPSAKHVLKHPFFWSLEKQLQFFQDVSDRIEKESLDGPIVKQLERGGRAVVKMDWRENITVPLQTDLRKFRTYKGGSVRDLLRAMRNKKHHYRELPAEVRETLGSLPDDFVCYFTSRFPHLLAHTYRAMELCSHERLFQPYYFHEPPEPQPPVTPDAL
Procedure, shortened: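 Kinase domain (0.25 nM) pre-bound to 2 nM Eu anti-His antibody for 1 h at 4° C in HEPES pH 7.5/MgCl2/Brij 35/DTT/gamma globulin buffer, then mixed with compounds and 2 nM Alexa 647 ATP-competitive probe. 1 h at room temperature; probe displacement read as TR-FRET (Ex 347 nm, Em 665/615 nm).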
`CC(C)n1c(=O)c(-c2ccc(NS(=O)(=O)CC3CC4(C3)CC4(F)F)c(F)c2)nc2cnc(N[C@H]3CC[C@H](N(C)C)CC3)nc21` (some centres unmarked) [Example 262, 1-(2,2-Difluorospiro[2.3]hexan-5-yl)-N-[4-[2-[[4-(dimethylamino)cyclohexyl]amino]-8-isopropyl-7-oxo-pteridin-6-yl]-2-fluoro-phenyl]methanesulfonamide] gave an IC50 of 0.3 nM. Work on `COCCN(C)[C@H]1CC[C@H](Nc2ncc3cc(-c4ccc(NS(=O)(=O)Cc5ccccc5)c(F)c4)c(=O)n(C(C)C)c3n2)CC1` [Compound 124, N-(2-Fluoro-4-(8-isopropyl-2-(((1r,4r)-4-((2-methoxyethyl)(methyl)amino)cyclohexyl)amino)-7-oxo-7,8-dihydropyrido[2,3-d]pyrimidin-6-yl)phenyl)-1-phenylmethanesulfonamide hydrochloride] yielded an IC50 of 0.12 nM. Work on `CC(C)n1c(=O)c(-c2ccc(NS(=O)(=O)CCC3(C)CC3)c(F)c2)cc2cnc(N[C@H]3CC[C@H](N(C)C)CC3)nc21` [Example 230, N-(4-(2-(((1r,4r)-4-(dimethylamino)cyclo-hexyl)amino)-8-isopropyl-7-oxo-7,8-dihydropyrido[2,3-d]-pyrimidin-6-yl)-2-fluorophenyl)-2-(1-methylcyclopropyl)-ethane-1-sulfonamide] yielded an IC50 of 0.2 nM. In the case of `Cc1ccc(CS(=O)(=O)Nc2c(F)cc(-c3cc4cnc(N[C@H]5CC[C@H](N(C)C)CC5)nc4n(C(C)C)c3=O)cc2F)cc1` [Compound 120, N-(4-(2-(((1r,4r)-4-(Dimethylamino)cyclohexyl)amino)-8-isopropyl-7-oxo-7,8-dihydropyrido[2,3-d]pyrimidin-6-yl)-2,6-difluorophenyl)-1-(p-tolyl)methanesulfonamide], the IC50 is reported as 1.7 nM. `CC(C)n1c(=O)c(-c2cc(F)c(NS(=O)(=O)CCC(C)(F)F)c(F)c2F)cc2cnc(N[C@H]3CC[C@H](N(C)C)CC3)nc21` [Compound 33, N-(4-(2-(((1r,4r)-4-(Dimethylamino)cyclohexyl)amino)-8-isopropyl-7-oxo-7,8-dihydropyrido[2,3-d]pyrimidin-6-yl)-2,3,6-trifluorophenyl)-3,3-difluorobutane-1-sulfonamide] showed an IC50 of 0.98 nM. In the case of `CC(C)n1c(=O)c(-c2ccc(NS(=O)(=O)C3CCCC3)c(F)c2)cc2cnc(N[C@H]3CC[C@H](N(C)C)CC3)nc21` [Compound 134, N-(4-(2-(((1r,4r)-4-(Dimethylamino)cyclohexyl)amino)-8-isopropyl-7-oxo-7,8-dihydropyrido[2,3-d]pyrimidin-6-yl)-2-fluorophenyl)cyclopentanesulfonamide hydrochloride], the IC50 is reported as 0.19 nM. Compound `Cc1nc(NS(=O)(=O)c2ccccc2Cl)ccc1-c1cc2cnc(N[C@@H]3CNC[C@@H](F)C3)nc2n(C(C)C)c1=O` [Compound 133, 2-Chloro-N-(5-(2-(((3S,5S)-5-fluoropiperidin-3-yl)amino)-8-isopropyl-7-oxo-7,8-dihydropyrido[2,3-d]pyrimidin-6-yl)-6-methylpyridin-2-yl)benzenesulfonamide] has an IC50 of 0.62 nM. For `Cc1ccc(CS(=O)(=O)Nc2c(F)cc(-c3cc4cnc(N[C@@H]5CNC[C@@H](F)C5)nc4n(C(C)C)c3=O)c(F)c2F)c(C#N)c1` [Compound 107, 1-(2-Cyano-4-methylphenyl)-N-(2,3,6-trifluoro-4-(2-(((3S,5S)-5-fluoropiperidin-3-yl)amino)-8-isopropyl-7-oxo-7,8-dihydropyrido[2,3-d]pyrimidin-6-yl)phenyl)methanesulfonamide], the IC50 was 0.13 nM. With `COCCN(CCOC)[C@H]1CC[C@H](Nc2ncc3cc(-c4ccc(NS(=O)(=O)CCC(F)(F)F)c(F)c4)c(=O)n(C(C)C)c3n2)CC1` [Compound 210, N-(4-(2-(((1,4-trans)-4-(Bis(2-methoxyethyl)amino)cyclohexyl)amino)-8-isopropyl-7-oxo-7,8-dihydropyrido[2,3-d]pyrimidin-6-yl)-2-fluorophenyl)-3,3,3-trifluoropropane-1-sulfonamide] the IC50 was 0.25 nM. `CC(C)n1c(=O)c(-c2ccc(NS(=O)(=O)c3ccccc3)c(F)c2)nc2cnc(N[C@@H]3CNC[C@@H](F)C3)nc21` [Compound 74, N-[2-Fluoro-4-[2-[[(3S,5S)-5-fluoro-3-piperidyl]amino]-8-isopropyl-7-oxo-pteridin-6-yl]phenyl]benzenesulfonamide] showed an IC50 of 0.6 nM. For `CC(C)n1c(=O)c(-c2ccc(NS(=O)(=O)CC3CCCCC3)c(F)c2)cc2cnc(N[C@H]3CC[C@H](N(C)C)CC3)nc21` [Compound 115, 1-Cyclohexyl-N-(4-(2-(((1r,4r)-4-(dimethylamino)cyclohexyl)amino)-8-isopropyl-7-oxo-7,8-dihydropyrido[2,3-d]pyrimidin-6-yl)-2-fluorophenyl)methanesulfonamide], the IC50 was 0.15 nM. Work on `CCn1c(=O)c(-c2ccc(NS(=O)(=O)Cc3ccccc3)c(F)c2F)cc2cnc(N[C@@H]3CNC[C@@H](F)C3)nc21` [Compound 12, N-(4-(8-Ethyl-2-(((3S,5S)-5-fluoropiperidin-3-yl)amino)-7-oxo-7,8-dihydropyrido[2,3-d]pyrimidin-6-yl)-2,3-difluorophenyl)-1-phenylmethanesulfonamide] yielded an IC50 of 0.57 nM. Work on `COCCN(C)[C@H]1CC[C@H](Nc2ncc3cc(-c4ccc(NS(=O)(=O)Cc5ccc(F)cc5)c(F)c4)c(=O)n(C(C)C)c3n2)CC1` [Compound 123, N-(2-Fluoro-4-(8-isopropyl-2-(((1r,4r)-4-((2-methoxyethyl)(methyl)amino)cyclohexyl)amino)-7-oxo-7,8-dihydropyrido[2,3-d]pyrimidin-6-yl)phenyl)-1-(4-fluorophenyl)methanesulfonamide] yielded an IC50 of 0.05 nM. `CCn1c(=O)c(-c2cc(F)c(NS(=O)(=O)Cc3ccccc3)c(F)c2F)cc2cnc(N[C@@H]3CNC[C@@H](F)C3)nc21` [Compound 15, N-(4-(8-Ethyl-2-(((3S,5S)-5-fluoropiperidin-3-yl)amino)-7-oxo-7,8-dihydropyrido[2,3-d]pyrimidin-6-yl)-2,3,6-trifluorophenyl)-1-phenylmethanesulfonamide] was tested, and the IC50 was 0.21 nM. Work on `CC(C)n1c(=O)c(-c2cc(F)c(NS(=O)(=O)Cc3ccc(C#N)cc3)c(F)c2F)cc2cnc(N[C@@H]3CNC[C@@H](F)C3)nc21` [Compound 29, 1-(4-Cyanophenyl)-N-(2,3,6-trifluoro-4-(2-(((3S,5S)-5-fluoropiperidin-3-yl)amino)-8-isopropyl-7-oxo-7,8-dihydropyrido[2,3-d]pyrimidin-6-yl)phenyl)methanesulfonamide] yielded an IC50 of 0.21 nM. For `CC(C)n1c(=O)c(-c2cc(F)c(NS(=O)(=O)CCC(F)(F)F)c(F)c2)nc2cnc(N[C@H]3CC[C@H](N(C)C)[C@@H](F)C3)nc21` (stereo in doubt) [Compound 168A, N-(4-(2-((4-(Dimethylamino)-3-fluorocyclohexyl)amino)-8-isopropyl-7-oxo-7,8-dihydropteridin-6-yl)-2,6-difluorophenyl)-3,3,3-trifluoropropane-1-sulfonamide], the IC50 was 0.24 nM. For `CC(C)n1c(=O)c(-c2ccc(NS(=O)(=O)CC3CC(F)(F)C3)c(F)c2)nc2cnc(N[C@@H]3CC[C@@H](N(C)C)[C@H](F)C3)nc21` (stereo in doubt) [Compound 193B, 1-(3,3-Difluorocyclobutyl)-N-(4-(2-((4-(dimethylamino)-3-fluorocyclohexyl)amino)-8-isopropyl-7-oxo-7,8-dihydropteridin-6-yl)-2-fluorophenyl)methanesulfonamide], the IC50 was 0.17 nM.

Source: US12344603B2 (Genentech, Inc., priority 2020, dated 2025)
